{"source": "paper PMC10674565", "about": "(Pharmaceuticals, 2023)", "key": {"[1]": {"set-up": "method as in earlier work", "settings": "liver metabolites of EMHPS; cited from earlier work"}, "SLCO1B1": {"biological_target": "T1, SLCO1B1 (Homo sapiens, UniProt Q9Y6L6)", "T1 sequence (Q9Y6L6 1-691)": "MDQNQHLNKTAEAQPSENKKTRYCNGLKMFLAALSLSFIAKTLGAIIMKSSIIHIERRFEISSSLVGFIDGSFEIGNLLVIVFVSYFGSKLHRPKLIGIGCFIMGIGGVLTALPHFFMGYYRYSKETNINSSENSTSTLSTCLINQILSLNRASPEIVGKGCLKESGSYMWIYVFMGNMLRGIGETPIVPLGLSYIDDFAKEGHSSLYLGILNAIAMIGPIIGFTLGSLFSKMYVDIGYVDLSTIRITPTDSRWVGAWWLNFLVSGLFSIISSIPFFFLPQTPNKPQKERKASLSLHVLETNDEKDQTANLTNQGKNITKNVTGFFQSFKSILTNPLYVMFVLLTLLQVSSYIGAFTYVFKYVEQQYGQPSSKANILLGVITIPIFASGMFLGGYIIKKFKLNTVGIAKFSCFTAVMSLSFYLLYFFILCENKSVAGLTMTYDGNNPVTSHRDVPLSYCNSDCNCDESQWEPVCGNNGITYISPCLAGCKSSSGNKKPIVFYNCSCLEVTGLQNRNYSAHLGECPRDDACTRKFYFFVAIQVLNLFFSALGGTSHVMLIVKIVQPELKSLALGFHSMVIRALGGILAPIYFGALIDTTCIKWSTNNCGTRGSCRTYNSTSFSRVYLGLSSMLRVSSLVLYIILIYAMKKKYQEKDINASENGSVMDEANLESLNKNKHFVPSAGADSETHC", "test": "Inhibition of SLCO1B1-mediated uptake of atorvastatin in HEK293-SLCO1B1 cells", "type": "in vitro ADME", "set-up": "The SLCO1B1 gene was obtained via synthesis and was cloned into the pEGFP-N1 vector; expressed in transfected cells; host or cells: HEK293", "description": "As a positive inhibition control, rifampicin at similar concentrations was used. Three independent experiments were performed. […] Proteins were precipitated by adding acetonitrile in a 1:1 ratio to the sample. […] The mobile phase gradient program was as follows: 0-0.6 min-35% A and 65% B, 0.6-5.0 min-5% A and 95% B, 5.0-8.0 min-35% A and 65% B. The flow rate and the column temperature were maintained at 300 μL/min and 35 °C. Aliquots (2 μL) of the extracted samples were injected."}, "ABCB1": {"biological_target": "ABCB1 (Homo sapiens, UniProt P08183)", "sequence (P08183 whole entry)": "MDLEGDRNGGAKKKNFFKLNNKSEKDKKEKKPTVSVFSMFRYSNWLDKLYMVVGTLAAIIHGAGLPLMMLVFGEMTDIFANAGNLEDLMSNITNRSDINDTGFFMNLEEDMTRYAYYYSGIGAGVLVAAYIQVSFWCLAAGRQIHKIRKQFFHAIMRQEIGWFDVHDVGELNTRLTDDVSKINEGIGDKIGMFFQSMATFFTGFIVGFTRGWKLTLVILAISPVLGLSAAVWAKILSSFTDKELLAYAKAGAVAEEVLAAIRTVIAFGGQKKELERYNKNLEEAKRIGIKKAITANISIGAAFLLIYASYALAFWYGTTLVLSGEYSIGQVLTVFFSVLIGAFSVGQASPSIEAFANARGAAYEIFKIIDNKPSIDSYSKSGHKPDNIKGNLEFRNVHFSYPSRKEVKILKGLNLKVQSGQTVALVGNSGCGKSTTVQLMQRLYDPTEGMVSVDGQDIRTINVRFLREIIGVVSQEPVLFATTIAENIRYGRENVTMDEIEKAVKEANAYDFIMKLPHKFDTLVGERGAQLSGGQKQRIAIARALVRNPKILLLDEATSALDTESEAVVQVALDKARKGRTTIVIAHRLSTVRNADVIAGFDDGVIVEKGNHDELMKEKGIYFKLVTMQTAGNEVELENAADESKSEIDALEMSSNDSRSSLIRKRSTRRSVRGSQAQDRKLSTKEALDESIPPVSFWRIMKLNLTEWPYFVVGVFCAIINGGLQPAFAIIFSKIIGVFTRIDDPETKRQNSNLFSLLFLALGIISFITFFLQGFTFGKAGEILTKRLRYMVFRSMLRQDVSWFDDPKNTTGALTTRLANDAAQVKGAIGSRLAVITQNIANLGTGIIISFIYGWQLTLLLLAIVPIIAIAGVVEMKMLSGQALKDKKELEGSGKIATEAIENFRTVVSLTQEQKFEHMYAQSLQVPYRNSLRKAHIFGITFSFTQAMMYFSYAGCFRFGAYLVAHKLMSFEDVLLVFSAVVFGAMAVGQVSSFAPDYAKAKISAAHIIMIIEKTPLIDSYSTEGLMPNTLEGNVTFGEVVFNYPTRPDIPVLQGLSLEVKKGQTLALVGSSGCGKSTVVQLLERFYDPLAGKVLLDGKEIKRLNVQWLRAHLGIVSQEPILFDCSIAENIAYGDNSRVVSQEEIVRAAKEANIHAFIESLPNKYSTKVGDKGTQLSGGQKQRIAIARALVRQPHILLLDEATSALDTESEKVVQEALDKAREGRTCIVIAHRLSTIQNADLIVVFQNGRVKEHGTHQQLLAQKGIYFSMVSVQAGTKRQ", "test": "Effect on ABCB1-mediated transport of fexofenadine through the Caco-2 cells monolayer", "settings": "all tested concentrations (1–200 µM), Caco-2 monolayer", "description": "Transport experiments were carried out in Transwell® systems (12 mm Transwell® with 0.4 µm Pore Polycarbonate Membrane Insert, Sterile, «Corning»). The Transwell® system consists of two chambers, apical and basolateral. […] The medium was changed every 2–3 days. The apical and basolateral chambers represent the luminal and blood/mesenteric lymph sides of the gastrointestinal tract, respectively.\nThe transepithelial electrical resistance (TEER) across the cell monolayers was monitored using a Millicell-ERS (electrical resistance system) to assess cell monolayer integrity. For transport studies, only monolayers with a TEER > 500 Ω cm^2 were used.\nTo study the roles of different parts of the EMHPS molecule for its action on ABCB1, experiments with succinic acid were also carried out.\nPrior to the transport experiments, the culture media was aspirated, and the monolayers were washed twice with transport medium and preincubated with EMHPS, succinic acid, or verapamil for 30 min.\nThe data are presented as the mean ± SD from three monolayers.\nThe resulting sample of the transport medium (50 μL) was diluted in 150 μL of the mobile phase, and 100 μL of the resulting solution was injected into the chromatograph. A Phenomenex Synergi 4u Polar-RP 80A (250 × 4.6) chromatographic column was used for analysis. The separation temperature was 35 °C; the flow rate was 1 mL/min. Composition of the mobile phase: acetonitrile (128 mL), deionized water (267.4 mL), acetic acid (6.33 mL), triethylamine to pH = 6.7. […] Detection was carried out at a wavelength of 220 nm.\nHalf maximal inhibitory concentration (IC50) values were determined through nonlinear regression based on the three-parameter logistic function."}, "[2]": {"settings": "human, HEK293-SLCO1B1 cells, pH 7.4, probe atorvastatin 1 µM"}}}
{"smiles": "CCc1nc(C)ccc1O[C@@H]1O[C@H](C(=O)O)[C@@H](O)[C@H](O)[C@H]1O", "note": "[2-ethyl-6-methyl-3-hydroxypyridine glucuronide]", "values": [{"measurement": "pharmacological activity", "setting": "[1]", "result": "no pharmacological activity"}]}
{"smiles": "CCc1nc(C)ccc1O.O=P(O)(O)O", "note": "[2-ethyl-6-methyl-3-hydroxypyridine phosphate]", "values": [{"measurement": "pharmacological activity", "setting": "[1]", "result": "no pharmacological activity"}]}
{"smiles": "CO[C@H]1/C=C/O[C@@]2(C)Oc3c(C)c(O)c4c(O)c(c(/C=N/N5CCN(C)CC5)c(O)c4c3C2=O)NC(=O)/C(C)=C\\C=C\\[C@H](C)[C@H](O)[C@@H](C)[C@@H](O)[C@@H](C)[C@H](OC(C)=O)[C@@H]1C", "note": "[rifampicin]", "values": [{"measurement": "IC50", "setting": "SLCO1B1", "result": "2510 ± 1350", "unit": "nM"}, {"measurement": "inhibition at 100 µM", "setting": "SLCO1B1; [2]", "result": 91.2, "unit": "%"}, {"measurement": "inhibition at 500 µM", "setting": "SLCO1B1; [2]", "result": 95.4, "unit": "%"}]}
{"smiles": "O=C(O)CCC(=O)O", "note": "[succinic acid]", "values": [{"measurement": "effect on SLCO1B1 activity", "setting": "SLCO1B1; all tested concentrations (1–500 µM), uptake of 1 µM atorvastatin", "result": "did not have a significant effect"}, {"measurement": "effect on Papp b-a, Papp a-b, and ER of fexofenadine transport", "setting": "ABCB1", "result": "did not have a significant effect"}]}
